In data set [1] the test system is rats. To be noted: oral administration; cited from earlier work.
Data set [2] has as its system p-4E-BP1. Put plainly: Western blotting in mouse myoblasts. Type of data set: cell-based. As to conditions: azelaic acid treatment of dexamethasone-treated cells, vs Dexa. The method, then: (§1) Mouse myoblast cell line (C2C12 cells) was purchased from ATCC (Manassas, Va., USA) and used. The purchased cell line was incubated in an incubator at 37° C., 5% CO2 using 10% fetal bovine serum medium (Gibco-BRL) and used for experiments. When the cell line reached a confluency of about 80%, the cells were differentiated into myotubes using 2% horse serum medium (Gibco-BRL). In order to identify muscle-potentiating efficacy, treatment with 100 μM azelaic acid (CAS Number 123-99-9, Sigma) was performed for two days from the day when differentiation began, and a control was treated with 100 μM dimethyl sulfoxide (DMSO; Sigma). […]
(§2) In order to perform Western blotting in cells, to each well from which the medium was removed was added a lysis buffer that contains 500 μL of 100 mM Tris-HCl, pH 7.4, 5 mM EDTA, 50 mM sodium pyrophosphate, 50 mM NaF, 100 mM orthovanadate, 1% Triton X-100, 1 mM phenylmethanesulfonyl fluoride, 2 μg/mL aprotinin, 1 μg/mL pepstatin A, and 1 μg/mL leupeptin, and the cells were lysed to obtain a lysate. […] Then, the middle layer was taken and proteins were quantified according to the Bradford method (Bio-Rad). 40 μg of the quantified proteins were electrophoresed on SDS polyacrylamide gel and then transferred to nitrocellulose membranes (Amersham, Buckinghamshire, UK).
On the technique in general: Immunoblotting shows a protein as a band on a membrane.

Data set [3] has as its system p-p70S6K1. The data set can be described thus: Western blotting in mouse myoblasts. Type of data set: cell-based. To be noted: azelaic acid treatment of dexamethasone-treated cells, vs Dexa. Here is the method:
as §1, §2

The conditions of data set [4]: ethanol and water; cited from earlier work.
The subject of data set [5] is MAFbx/Atrogin1. The data set can be described thus: Real-time PCR mRNA expression in mouse myoblasts. Type of data set: cell-based. As to conditions: azelaic acid treatment of dexamethasone-treated cells, vs Dexa. Here is the method: (§3) Mouse myoblast cell line (C2C12 cells) was purchased from ATCC (Manassas, Va., USA) and used. The purchased cell line was incubated in an incubator at 37° C., 5% CO2 using 10% fetal bovine serum medium (Gibco-BRL) and used for experiments. When the cell line reached a confluency of about 80%, the cells were differentiated into myotubes using 2% horse serum medium (Gibco-BRL). In order to identify muscle-potentiating efficacy, treatment with 100 μM azelaic acid (CAS Number 123-99-9, Sigma) was performed for two days from the day when differentiation began, and a control was treated with 100 μM dimethyl sulfoxide (DMSO; Sigma). In order to identify muscle loss-inhibitory efficacy, combined treatment with 50 μM dexamethasone (dexa; Sigma) and 100 μM azelaic acid (CAS Number 123-99-9, Sigma) was performed for two days from the 4th day of differentiation.
(§4) 334 μl of Trizol solution was added per 1×10^7 cells of mouse myoblasts, and grinding was performed. Then, the resultant was centrifuged at 4° C. and 12,000×g for 10 minutes. The supernatant was transferred to a new tube. Then, 67 μl of chloroform was added thereto and vortexing was performed. Again, the supernatant was transferred to a new tube, and isopropanol was added so that a ratio of the supernatant to isopropanol was 1:1. After performing vigorous shaking 10 times, the tube was allowed to stand at room temperature for 15 minutes, and centrifuged at 12,000×g and 4° C. for 10 minutes.
A general note: Real-time PCR tracks product formation cycle by cycle.

The test system of data set [6] is MuRF1. Put plainly: Real-time PCR mRNA expression in mouse myoblasts. Type of data set: cell-based. To be noted: azelaic acid treatment of dexamethasone-treated cells, vs Dexa. The method, then:
as §3, §4

In data set [7] the test system is myostatin. Put plainly: Real-time PCR mRNA expression in mouse myoblasts. Type of data set: cell-based. To be noted: azelaic acid treatment of dexamethasone-treated cells, vs Dexa. The method, then:
as §3, §4

The subject of data set [8] is IGF1. Put plainly: Real-time PCR mRNA expression in mouse myoblasts. Type of data set: cell-based. To be noted: azelaic acid treatment of dexamethasone-treated cells, vs Dexa. Here is the method: as §3, §4
For data set [9], the system named is various strains of skin microorganisms. As to conditions: 0.5 mol/l (8.4% w/v) azelaic acid solution, 24 hours, all bacterial strains; cited from earlier work.
In data set [10] the test system is nicotinamide adenine dinucleotide phosphate (NADP) oxidase. To be noted: cited from earlier work.
The test system of data set [11] is Mouse myoblast cell line (C2C12 cells). The data set can be described thus: Myotube length in dexamethasone-treated mouse myoblasts (muscle loss-inhibitory efficacy), Wright-Giemsa staining. Type of data set: cell-based. As to conditions: 100 μM azelaic acid combined with 50 μM dexamethasone for two days from the 4th day of differentiation. Here is the method:
(§5) Mouse myoblast cell line (C2C12 cells) was purchased from ATCC (Manassas, Va., USA) and used. The purchased cell line was incubated in an incubator at 37° C., 5% CO2 using 10% fetal bovine serum medium (Gibco-BRL) and used for experiments. […] In order to identify muscle-potentiating efficacy, treatment with 100 μM azelaic acid (CAS Number 123-99-9, Sigma) was performed for two days from the day when differentiation began, and a control was treated with 100 μM dimethyl sulfoxide (DMSO; Sigma). […] Sigma) and 100 μM azelaic acid (CAS Number 123-99-9, Sigma) was performed for two days from the 4th day of differentiation. The cells were washed twice with phosphate buffered saline (PBS), and then fixed for 10 minutes with 100% methanol. […] Co., Ltd., Seoul, South Korea) that specifically stains myotubes. Stained myotubes were photographed at ×40 magnification using a fluorescence microscope (IX 71, Olympus) and analyzed using Image J software (USA). Six sections of each well were randomly selected and micrographed. Lengths of at least 100 myotubes from each well were analyzed (3 repetitions/group).

For data set [12], the system named is interleukin-1β, interleukin-6, and TNF-α. As to conditions: human epidermal cells treated with 20 mM azelaic acid; cited from earlier work.
Data set [13] relates to Mouse myoblast cell line (C2C12 cells). Put plainly: Myotube length in differentiating mouse myoblasts (muscle-potentiating efficacy), Wright-Giemsa staining. Type of data set: cell-based. As to conditions: 100 μM azelaic acid for two days from the day differentiation began, vs DMSO control. Here is the method: as §5

As for `O=C(O)CCCCCCCC(=O)O` [azelaic acid, nonanedioic acid], in data set [1], the LD50 is reported as 15,800 mg/kg. In addition, the “amount of p-4E-BP1 protein” value in data set [2] is “significantly increased”. Further, the “amount of p-p70S6K1 protein” value in [3] was “significantly increased”. For the same molecule, in data set [4], the solubility result was “soluble”. Further, the “expression of MAFbx/Atrogin1 gene” value in data set [5] is “significantly decreased”. Also, the “expression of MuRF1 gene” value in data set [6] is reported as “significantly decreased”. The “expression of myostatin gene” value in data set [7] is “significantly decreased”. The “expression of IGF1 gene” value in [8] is “significantly increased”. Further, the “decreased viability of bacterial strains” value in data set [9] is recorded as “at least 40 fold”. Further, the “reaction of NADP oxidase (antioxidant effect)” value in data set [10] is listed as “inhibiting”. The “increase in the myotube length which has decreased due to dexamethasone” value in data set [11] amounted to 62%. Besides, in [12], the “mRNA expression and protein secretion of interleukin-1β, interleukin-6, and TNF-α by UVB” value is listed as “inhibition”. For the same molecule, the “increase in myotube length” value in [13] was found to be 62%.

Source of the values: patent US20200121627A1, “COMPOSITION COMPRISING AZELAIC ACID OR AS ACTIVE INGREDIENTS FOR MUSCLE STRENGTHENING, DEVELOPMENT, DIFFERENTIATION, REGENERATION OR INHIBITING MUSCLE ATROPHY” (priority 2018, published 2020).
